In publication PMC12089509, “NorA Efflux Pump Inhibitors: Expanding SAR Knowledge of Pyrazolo[4,3‐c][1,2]benzothiazine 5,5‐Dioxide Derivatives” (Archiv Der Pharmazie, 2025):
Like-named read-outs stand apart in the source and are kept apart here.

Tests used:
[1] = molecular target: T1, S. aureus NorA efflux pump (SA-1199B strain, overexpresses the norA gene) (Staphylococcus aureus, UniProt P0A0J7); assay: EtBr efflux inhibition assay; assay type: cell-based; conditions: for inhibition at 50 µM: read-out: EtBr efflux inhibition (%), compound at 50 µM, SA-1199B; for inhibition at 10 µM: read-out: EtBr efflux inhibition (%), compound at 10 µM, SA-1199B
T1 construct: endogenous in cells; host or cells: S. aureus SA-1199B (overexpresses norA; isogenic parent SA-1199)
T1 sequence (P0A0J7 whole entry): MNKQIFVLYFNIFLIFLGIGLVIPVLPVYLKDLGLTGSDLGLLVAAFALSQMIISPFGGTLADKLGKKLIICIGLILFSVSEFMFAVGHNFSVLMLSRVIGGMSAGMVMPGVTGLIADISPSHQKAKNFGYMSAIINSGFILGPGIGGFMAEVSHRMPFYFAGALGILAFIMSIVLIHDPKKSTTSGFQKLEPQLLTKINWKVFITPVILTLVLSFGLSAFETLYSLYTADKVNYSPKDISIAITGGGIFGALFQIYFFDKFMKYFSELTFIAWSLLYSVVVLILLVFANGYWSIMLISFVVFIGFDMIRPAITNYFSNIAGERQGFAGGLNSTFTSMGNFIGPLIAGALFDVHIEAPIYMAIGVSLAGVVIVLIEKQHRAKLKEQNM
Experimental: EtBr efflux inhibition assays were conducted using the S. aureus SA‐1199B strain, which overexpresses the norA gene and has an A116E GrlA substitution. Each compound was tested at 50 µM (see Figure 2). The starting hit compound 1 was used as the internal standard for comparison with the previously reported data.
The cells were grown overnight in cation‐supplemented Mueller–Hinton broth (CAMHB) without any additives at 35°C. The organisms were subsequently diluted into CAMHB to obtain an optical density at 600 nm (OD600) of 0.7–0.8. Subsequently, the cells were pelleted and resuspended at an OD600 of 0.8 in 0.5 mL aliquots of CAMHB containing EtBr and carbonyl cyanide m‐chlorophenylhydrazone (CCCP) to “load” the cells with EtBr (final concentrations of 25 μM for EtBr and 100 μM for CCCP). Following 20 min of incubation at room temperature, the cells were pelleted and resuspended in 1 mL of fresh CAMHB. Immediately thereafter, 200 μL aliquots were transferred into the wells of white 96‐well plates, which either lacked or contained 50 or 10 μM of each test compound. Fluorescence was monitored continuously using a microplate reader (Infinite M200 Pro, TECAN) at excitation and emission wavelengths of 485 and 645 nm, respectively, for a period of 5 min. The experiments were conducted in triplicate, with two technical replicates per biological replicate. The efflux activity of the SA‐1199B strain was expressed as a percentage of fluorescence decrease over a 5‐min time course. The inhibition of this efflux by the test compounds was determined using the following equation: ([efflux in the absence] ‐ [efflux in the presence of test [compound])/[efflux in the absence of test compound] × 100, which yielded the percent efflux inhibition observed.
^a Experiments were performed in triplicate with two technical replicates per biological replicate. Efflux activity of SA-1199B was expressed as percent fluorescence decrease over a 5 min time course. Inhibition of this efflux by test compounds was determined using the equation [efflux in the absence] − [efflux in the presence of test [compound]/[efflux in the absence of test compound] × 100, giving the percent efflux inhibition observed.

[2] = test system: Staphylococcus aureus SA-1199B; assay: MIC determination (broth microdilution) against SA-1199B; assay type: cell-based; conditions: SA1199B
Excerpt: In this study, the S. aureus strains SA‐1199B (overexpressing norA) and its isogenic parent SA‐1199 (wild type), the pair SA‐K1902 (norA‐depleted) and SA‐K2378 (complemented with a pCU1 plasmid harboring the norA promoting and coding region from SA‐1199B), were used to test EPI activity as described in a previous study. Furthermore, the S. aureus ATCC 29213 was used as the reference strain in MIC determination experiments.

[3] = test system: Staphylococcus aureus SA-1199B; assay type: cell-based
Excerpt: For purposes of comparison, compound 1 was included as a reference.

[4] = test system: S. aureus SA-1199 (wild type); assay: MIC determination against wild-type SA-1199; assay type: cell-based; conditions: Staphylococcus aureus, compound alone
Excerpt: (§1) This finding aligns with their mechanism of action, which involves the inhibition of NorA, which is only basally expressed in the wild‐type SA‐1199 strain.

[5] = test system: S. aureus SA-1199 (wild type); assay: Synergistic assay with CPX against wild-type SA-1199; assay type: cell-based, Staphylococcus aureus; conditions: EPI at 3.13 µg/mL with CPX
Excerpt: as §1

Structure (SMILES)	inhibition at 50 µM [1] [%]	MIC [2] [µg/mL]	N° fold CPX MIC reduction ([3]; EPI at 12.5 µg/mL) [fold]	inhibition at 10 µM [1] [%]	N° fold CPX MIC reduction ([3]; EPI at 6.25 µg/mL) [fold]	MIC [4] [µg/mL]	synergistic effect with CPX [5]	N° fold CPX MIC reduction ([3]; EPI at 3.12 µg/mL) [fold]
COc1ccc2c(c1)S(=O)(=O)N(C)c1c(-c3ccc(F)cc3)nn(C)c1-2 [Compound 22, 3‐(4‐Fluorophenyl)‐7‐methoxy‐1,4‐dimethyl‐1,4‐dihydropyrazolo[4,3‐c][1,2]benzothiazine 5,5‐dioxide]	22	> 50	2	–	–	–	–	–
CN1c2c(-c3ccc(F)cc3)nn(C)c2-c2ccc(OCCN3CCCCC3)cc2S1(=O)=O [Compound 20, 3‐(4‐Fluorophenyl)‐1,4‐dimethyl‐7‐(2‐piperidin‐1‐ylethoxy)‐1,4‐dihydropyrazolo[4,3‐c][1,2]benzothiazine 5,5‐dioxide]	> 70	> 50	8	33	2	> 50	did not show any synergistic effect	–
Cc1nn(-c2ccc([N+](=O)[O-])cc2)c2c1S(=O)(=O)N(C)c1ccccc1-2 [Compound 7, 3,5‐Dimethyl‐1‐(4‐nitrophenyl)‐1,5‐dihydropyrazolo[4,3‐c][2,1]benzothiazine 4,4‐dioxide]	3	> 50	–	–	–	–	–	–
CN1c2c(-c3ccc(F)cc3)nn(C)c2-c2ccc(OCC(O)CO)cc2S1(=O)=O (stereo not drawn) [Compound 21, 3‐{[3‐(4‐Fluorophenyl)‐1,4‐dimethyl‐5,5‐dioxido‐1,4‐dihydropyrazolo[4,3‐c][1,2]benzothiazin‐7‐yl]oxy}propane‐1,2‐diol]	0	> 50	–	–	–	–	–	–
Cc1nn(-c2ccc([N+](=O)[O-])cc2)c2c1NS(=O)(=O)c1ccccc1-2 [Compound 4]	0	> 50	–	–	–	–	–	–
CCN1c2c(-c3ccc(F)cc3)n[nH]c2-c2ccccc2S1(=O)=O [Compound 14, 4‐Ethyl‐3‐(4‐fluorophenyl)‐1,4‐dihydropyrazolo[4,3‐c][1,2]benzothiazine 5,5‐dioxide]	57	> 50	2	–	–	–	–	–
Cc1nn(-c2ccc([N+](=O)[O-])cc2)c2c1N(C)S(=O)(=O)c1ccccc1-2 [Compound 6]	22	> 50	–	–	–	–	–	–
O=S1(=O)Nc2c(-c3ccc(Cl)cc3)n[nH]c2-c2ccccc21 [Compound 9, 3‐(4‐Chlorophenyl)‐1,4‐dihydropyrazolo[4,3‐c][1,2]benzothiazine 5,5‐dioxide]	12	> 50	2	–	–	–	–	–
CN1c2c(-c3ccc(F)c(Cl)c3)n[nH]c2-c2ccccc2S1(=O)=O [Compound 13, 3‐(3‐Chloro‐4‐fluorophenyl)‐4‐methyl‐1,4‐dihydropyrazolo[4,3‐c][1,2]benzothiazine 5,5‐dioxide]	100	> 50	4	0	–	> 50	did not show any synergistic effect	2
CN1c2c(-c3ccc(Cl)cc3)nn(CCN3CCCCC3)c2-c2ccccc2S1(=O)=O [Compound 18, 3‐(4‐Chlorophenyl)‐4‐methyl‐1‐(2‐piperidin‐1‐ylethyl)‐1,4‐dihydropyrazolo[4,3‐c][1,2]benzothiazine 5,5‐dioxide]	> 70	> 50	4	37	2	> 50	did not show any synergistic effect	–
CN1c2c(-c3ccc(F)cc3)n[nH]c2-c2ccccc2S1(=O)=O [Compound 12, 3‐(4‐Fluorophenyl)‐4‐methyl‐1,4‐dihydropyrazolo[4,3‐c][1,2]benzothiazine 5,5‐dioxide]	87	> 50	–	22	–	> 50	did not show any synergistic effect	–
Cc1nn(-c2ccc([N+](=O)[O-])cc2)c2c1S(=O)(=O)Nc1ccccc1-2 [Compound 5, 3‐Methyl‐1‐(4‐nitrophenyl)‐1,5‐dihydropyrazolo[4,3‐c][2,1]benzothiazine 4,4‐dioxide]	0	> 50	–	–	–	–	–	–
CN1c2c(-c3ccccc3)n[nH]c2-c2ccccc2S1(=O)=O [Compound 11, 4‐Methyl‐3‐phenyl‐1,4‐dihydropyrazolo[4,3‐c][1,2]benzothiazine 5,5‐dioxide]	< 70	> 50	–	–	–	–	–	–
Cc1cc(-c2ccccc2NS(C)(=O)=O)n(-c2ccccc2)n1 [Compound 8, N‐[2‐(3‐Methyl‐1‐phenyl‐1H‐pyrazol‐5‐yl)phenyl]methanesulfonamide]	0	> 50	2	–	–	–	–	–
CN1C(C(=O)c2ccc(F)cc2)=C(OCCN2CCCCC2)c2ccccc2S1(=O)=O [Compound 24, (4‐Fluorophenyl)[2‐methyl‐1,1‐dioxido‐4‐(2‐piperidin‐1‐ylethoxy)‐2H‐1,2‐benzothiazin‐3‐yl]methanone]	38	> 50	2	–	–	–	–	–
CN1c2c(-c3ccc(Cl)cc3)nn(-c3ccc([N+](=O)[O-])cc3)c2-c2ccccc2S1(=O)=O [Compound 2]	0	> 50	–	–	–	–	–	–
CNCCN1c2c(-c3ccc(F)cc3)n[nH]c2-c2ccccc2S1(=O)=O [Compound 17, 2‐[3‐(4‐Fluorophenyl)‐5,5‐dioxidopyrazolo[4,3‐c][1,2]benzothiazin‐4(1H)‐yl]‐N‐methylethanamine]	57	> 50	–	–	–	–	–	–
O=S1(=O)c2ccccc2-c2[nH]nc(-c3ccc(F)cc3)c2N1CCCO [Compound 15, 3‐[3‐(4‐Fluorophenyl)‐5,5‐dioxidopyrazolo[4,3‐c][1,2]benzothiazin‐4(1H)‐yl]propan‐1‐ol]	17	> 50	2	–	–	–	–	–
CNC(=O)CN1c2c(-c3ccc(F)cc3)n[nH]c2-c2ccccc2S1(=O)=O [Compound 16, 2‐[3‐(4‐Fluorophenyl)‐5,5‐dioxidopyrazolo[4,3‐c][1,2]benzothiazin‐4(1H)‐yl]‐N‐methylacetamide]	22	> 50	2	–	–	–	–	–
CCN(CC)CCOC1=C(C(=O)c2ccc(F)cc2)N(C)S(=O)(=O)c2ccccc21 [Compound 23, {4‐[2‐(Diethylamino)ethoxy]‐2‐methyl‐1,1‐dioxido‐2H‐1,2‐benzothiazin‐3‐yl}(4‐fluorophenyl)methanone]	36	> 50	2	–	–	–	–	–
